Experimental data as given in article PMC8821551, “Binding of cationic analogues of α-MSH to lipopolysaccharide and disruption of the cytoplasmic membranes caused bactericidal action against Escherichia coli” (Scientific Reports, 2022).

What was measured:
E. coli cells = test: Membrane permeabilization assay (PI uptake, flow cytometry); format: cell-based, Escherichia coli; conditions: span over rising peptide concentrations; 10^6 CFU/mL mid-log cells, PI 1.3 µg/mL, 37 °C, 1 h, flow cytometry; three independent days
Protocol: Membrane permeabilization of E. coli cells was determined via propidium iodide (PI) uptake assay through flow cytometry as described previously with slight modifications. Briefly, mid-log phase E. coli cells were adjusted to 10^6 CFU/mL in the HEPES-glucose buffer. Next, cells were incubated with propidium iodide (PI) at 1.3 µg/mL concentration for 30 min in the dark. After incubation, PI-loaded cells were treated with a range of peptide concentrations, i.e., 1 µM, 2 µM, 5 µM, and 10 µM, at 37 °C for 1 h, and PI fluorescence intensity was measured through Becton Dickinson (BD) FACS verse (San Jose, CA) flow cytometer using excitation at 544 nm and emission at 620 nm.
Figure S2: Histograms of E. coli cells treated with 2 µM concentration of α-MSH and its analogues and 1 µM concentration of polymyxin B for 1 h. Towards monitoring the membrane permeabilizations of E. coli cells, propidium iodide (PI) uptake assay through flow cytometry was performed using the previously standardized method with mild modifications ^2. Briefly, mid-log phase grown E. coli cells (10^6 CFU/mL) suspended in the HEPES-glucose buffer were incubated with propidium iodide (PI) at a concentration of 1.3 µg/mL for 30 min in dark. After incubation, PI loaded cells were treated with a range of peptide concentrations; 1 µM, 2 µM, 5 µM and 10 µM at 37 °C for 1 h, and PI fluorescence intensity was measured through Becton Dickinson (BD) FACS verse (San Jose, CA) flow cytometer using excitation at 544 nm and emission at 620 nm.

dye-loaded E. coli cells = test: Viability of DiSC3(5) dye-loaded cells by plating; format: cell-based, Escherichia coli; conditions: dye-loaded cells 10^6, HEPES-glucose buffer, two different days
Protocol: The membrane depolarization of E. coli cells was determined using a potentiometric fluorescent probe DiSC3(5), as described elsewhere. Briefly, mid-log phase E. coli cells were diluted to 10^6 CFU/mL in the same HEPES-glucose buffer and were incubated with DiSC3(5) and EDTA at 0.4 µM and 0.2 mM concentrations, respectively, for 1 h in the dark at 37 °C, till the maximum uptake of the probe occurred. Increasing concentrations of the studied peptides from 1 µM to 10 µM were then added to these dye-loaded cells in a quartz cuvette, and the fluorescence intensity was measured on spectrofluorimeter (Shimadzu RF-5301 PC) set as excitation at 622 nm and emission at 670 nm. The increase in fluorescence intensity accounted for the dissipation of membrane potential caused due to peptide treatment. Cells treated with 10 µM melittin were used as a positive control. Simultaneously, the dye-loaded cells were plated onto LB agar to estimate bacterial cell death.
Figure S1: Survival of dye-loaded cells (10^6) treated with various concentrations of peptides that correspond to the inner membrane depolarization. The dye-loaded E. coli cells suspended in HEPES-glucose buffer ([…]) were incubated with different concentration of α-MSH and its analogues for 2 minutes and further diluted in the same buffer and plated on LB agar plates. The plates were further incubated at 37 °C for 16 h. Next day the colonies were counted.^1 The experiment was performed on two different days and the representative values (mean ± SE) are shown in graph. (⁎, P < 0.05; ⁎⁎, P < 0.01, compared to that of control at the same concentration).

E. coli outer membrane = test: Outer membrane permeabilization assay (NPN uptake); format: cell-based, Escherichia coli; conditions: relative to 10 µM polymyxin B = 100%; for %NPN uptake: 10^8 CFU/mL mid-log cells, 10 μM NPN
Protocol: The outer membrane permeabilization assay was done as described in the literature with slight modifications. Briefly, bacterial cells were grown to mid-log phase in LB medium, washed and diluted to 10^8 CFU/mL in HEPES-glucose buffer. Next, this bacterial suspension was treated with 10 μM NPN probe and subsequently challenged with increasing concentrations of peptides (1 µM to 20 µM). Changes in the fluorescence intensity of NPN were measured with the help of Shimadzu RF-5301 PC spectrofluorimeter (excitation at 350 nm and emission at 420 nm). Increased intensity of emission resulted from the damage to the bacterial outer membrane and was measured until no further increase in fluorescence was observed. NPN uptake was calculated using the following formula: %NPNuptake=Fobs-F0/F100-F0×100 where Fobs is the NPN fluorescence intensity after the peptide treatment, F0 is the NPN fluorescence with untreated E. coli cells, and F100 is the NPN fluorescence in the presence of 10 µM polymyxin B (a positive control).

E. coli ATCC 25922 = test: Killing assay (killing kinetics), logarithmic phase cells; format: cell-based, Escherichia coli; conditions: logarithmic phase, 10^5 CFU/mL; for log reduction in cell viability: HEPES-glucose buffer pH 7.4, 37 °C, average ± SE, three independent experiments, SEM; for killing activity (decrease in cell viability), in words: low concentrations 1 µM and 2 µM, up to 2 h
Protocol: (§1) For this study, a well-characterized strain of E. coli (ATCC 25922) was used. The strain was stored at − 80 °C in 15% (v/v) glycerol until sub-cultured onto LB agar plates for use.
(§2) The antibacterial activity of α-MSH and its cationic analogues was determined against both logarithmic (2–3 h) and stationary (16–18 h) phase of E. coli cells in LB medium. The bacterial suspension was pelleted, washed, and diluted in HEPES-glucose buffer (5 mM HEPES, 20 mM glucose, pH 7.4) to adjust the cell density by measuring the OD = 0.5 (10^8 CFU/mL) at 600 nm using a spectrophotometer. This suspension was used to obtain the desired inoculum sizes (10^5 CFU/mL, 10^6 CFU/mL, and 10^7 CFU/mL). The inoculums were exposed to various concentrations of peptides (1 µM, 2 µM, 5 µM, and 10 µM) and incubated at 37 °C. Untreated E. coli cells were also included as a control. At selected time points (0 min, 15 min, 30 min, 60 min, and 120 min), aliquots were taken out, and survival of E. coli cells was determined by quantitative plating on LB agar after appropriate dilution in the same buffer. The plates were incubated overnight at 37 °C, followed by colony counting. Each experiment was performed at least three times on three independent days.

[1] = system: stationary phase E. coli cells; test: Killing assay, stationary phase cells; format: cell-based, Escherichia coli; conditions: 10^5 CFU/mL, HEPES-glucose buffer, 37 °C, peptide 10 µM, 1 h, mean ± SE, three independent days, SEM
Protocol: as §1, §2

LPS from E. coli O55:B5 = test: LPS binding assay (BODIPY-TR-cadaverine displacement); design: species or system Escherichia coli; conditions: BC displacement, LPS 50 μg/mL, 5 µM BC, 50 mM Tris buffer pH 7.4, peptide 0.25 to 20 µM, Hill equation fit, mean Kd ± SD of two independent experiments, read-out: Kd (dissociation constant) with LPS
Protocol: The binding of α-MSH and its analogues to LPS was checked using BODIPY-TR-cadaverine (BC) as a fluorescent probe[24],[42]. BC fluorescence decreases when bound to cell-free LPS and increases when it is freely accessible in solution. LPS (50 μg/mL) from E. coli O55:B5 (Sigma-Aldrich, India) was incubated with 5 µM of BC in 50 mM Tris buffer (pH 7.4) for 4 h. Next, 800 µL of this LPS-BC mixture was added to varying concentrations (0.25 µM to 20 µM) of the peptides in a quartz cuvette, and the BC fluorescence was measured on a spectrofluorimeter (Shimadzu RF-5301 PC) with excitation at 580 nm and emission at 620 nm. Each experiment was done in duplicate independently. Increase in fluorescence intensities with increase in concentration of peptides were plotted and the dissociation constant (Kd) was calculated from each individual data set and is presented as mean value ± SD using Igor Pro 6.36 (Y = Bmax × Xˆh/(Kdˆh + Xˆh); where X: concentration of peptide (µM), Y: fluorescence intensity (a.u.), h: Hill slope)[43]. The molecular mass of LPS was taken as 20,000 Da as described elsewhere, and its concentration was calculated accordingly.
Table S1: The dissociation constant (Kd) of α-MSH and its analogues with LPS. […]

[2] = peptide 10 µM, 2 min of exposure

Compound | PI positive cells (E. coli cells) | log reduction in cell viability of dye-loaded cells (dye-loaded E. coli cells; peptide 5 µM, 2 min exposure) [log] | log reduction in cell viability of dye-loaded cells (dye-loaded E. coli cells; [2]) [log] | maximum NPN uptake (E. coli outer membrane; over peptide concentrations from 1 to 20 μM) [%] | log reduction in cell viability (E. coli ATCC 25922; peptide 10 µM, 1 h) [log] | killing activity (decrease in cell viability), in words (E. coli ATCC 25922) | change of killing activity at 5 µM against lower concentrations, in words (E. coli ATCC 25922; peptide 5 µM) | log reduction in cell viability [1] [log] | %NPN uptake (E. coli outer membrane; peptide 1 μM, HEPES-glucose buffer, average of three independent days) [%] | %NPN uptake (E. coli outer membrane; peptide 20 μM (highest concentration)) [%] | log reduction in cell viability (E. coli ATCC 25922; peptide 5 µM, 2 h) [log] | log reduction in cell viability (E. coli ATCC 25922; peptide 10 µM, 2 h) [log] | Kd (LPS from E. coli O55:B5) [nM]
CSCC[C@H](NC(=O)[C@H](CO)NC(=O)[C@H](Cc1ccc(O)cc1)NC(=O)[C@H](CCCCN)NC(C)=O)C(=O)N[C@@H](CCC(=O)O)C(=O)N[C@@H](Cc1c[nH]cn1)C(=O)N[C@@H](Cc1ccccc1)C(=O)N[C@@H](CCCNC(=N)N)C(=O)N[C@@H](Cc1c[nH]c2ccccc12)C(=O)NCC(=O)N[C@@H](CCCCN)C(=O)N1CCC[C@H]1C(=O)N[C@H](C(N)=O)C(C)C [K-MSH] | 21.8–26.5% | 0.7 | 0.6 | 16.2 | 1.9 ± 0.3 | very slight decrease in the cell viability | marginal increase in activity | 1.7 ± 0.3 | – | – | – | – | –
CSCC[C@H](NC(=O)[C@H](CCCCN)NC(=O)[C@H](Cc1ccc(O)cc1)NC(=O)[C@H](CCCCN)NC(C)=O)C(=O)N[C@@H](CCC(=O)O)C(=O)N[C@@H](Cc1c[nH]cn1)C(=O)N[C@@H](Cc1ccccc1)C(=O)N[C@@H](CCCNC(=N)N)C(=O)N[C@@H](Cc1c[nH]c2ccccc12)C(=O)NCC(=O)N[C@@H](CCCCN)C(=O)N1CCC[C@H]1C(=O)N[C@H](C(N)=O)C(C)C [KK-MSH] | – | 0.5 | 1.2 | – | – | very slight decrease in the cell viability | – | 1.8 ± 0.05 | 6.8 | 37.7 | 1.7 ± 0.4 | 2.6 ± 0.5 | –
polymyxin B [reference compound] | – | – | – | – | – | – | – | – | – | – | – | – | 2400 ± 840
